30 compounds from patent US9296694B2, “Azacyclic compounds” (ACADIA Pharmaceuticals Inc., priority 2000, dated 2016) can be followed below.

Entries after “also recorded” stand apart in the source; their conditions may differ. Where only a bound is given, the exact number is not on record here.

The subject of the first test is acoustic startle and prepulse inhibition in rats. The experiment in a line: Startle testing, prepulse inhibition (PPI) in rats. The test is classed as in vivo. To be noted: rats; 0.5 mg/kg, s.c. An excerpt:
(§1) Instruments) were used for rat experiments (details on startle apparatus and measures, see Male Non-Swiss Albino mice and male Sprague-Dawley rats (Harlan Sprague-Dawley) were housed (4 mice/cage; 2 rats/cage) in rooms with temperature and humidity controlled and water and food (Harlan Teklad) freely available. Mice were kept on a 12-hr light:dark cycle, whereas rats were kept on a 12-hr reverse light:dark cycle. For locomotor and observation experiments in mice, plastic 20×20×30 cm activity cages were equipped with photocell beams (AccuScan Instruments). Startle chambers (San Diego Instruments) were used for rat experiments (for details on startle apparatus and measures, see Mansbach et al., (1988) Psychopharmacology 94:507-14).
Rats were tested and groups (n=10) matched for levels of startle reactivity and prepulse inhibition (PPI; see Mansbach et al., (1988) Psychopharmacology 94:507-14). Two days later, test sessions started and consisted of a 5-min acclimation period with a constant background noise (65 dB), followed by 60 presentations of acoustic stimuli to measure acoustic startle responses. The 60 trials consisted of: twenty two 40-ms presentations of a 120 dB broadband pulse, ten 20-ms presentations of each prepulse intensity (68, 71, 77 dB) 100 ms prior to a 40-msec presentation of a 120 dB broadband pulse, and 8 NOSTIM trials in which no stimuli were delivered in order to assess general motor activation in the rats. Thirty min before testing, rats were treated with sterile water (s.c.), risperidone (1.0 mg/kg, i.p.), or AC-90179 (s.c.). Five min later, rats were administered DOI (0.5 mg/kg, s.c.) or 0.9% saline (s.c.). One-week later, rats were administered the same pretreatment drug or vehicle and crossed over to receive the treatment opposite to that they received the previous week. Startle magnitudes and percent PPI for the three prepulse intensities were calculated as described elsewhere (Bakshi, et al., (1994) J. Pharmacol. Exp. Ther. 271:787-94) and ANOVAs with repeated measures performed.
`COc1cc(CC(C)N)c(OC)cc1I` (stereo not drawn) [DOI, reference compound]: the “effect on PPI” value is “significantly disrupted PPI”.

Still in this test, the particulars now being: rats; 3-way repeated measures ANOVA.
On to `Cc1nc2n(c(=O)c1CCN1CCC(c3noc4cc(F)ccc34)CC1)CCCC2` [risperidone], for which the “effect on startle magnitude” value is recorded as “no effect on startle magnitude”.

The test is the same for the next values; noted with them: rats; DOI 0.5 mg/kg s.c.; AC-90179 s.c., risperidone 1.0 mg/kg i.p.
Consider `Cc1nc2n(c(=O)c1CCN1CCC(c3noc4cc(F)ccc34)CC1)CCCC2` [risperidone], for which the “restoration of PPI in DOI-treated rats” value was “effective in restoring PPI in DOI-treated rats; also recorded: significant effects”.

The test is the same for the next values; noted with them: saline (vehicle)-treated rats; AC-90179 s.c., risperidone 1.0 mg/kg i.p.
Take `Cc1nc2n(c(=O)c1CCN1CCC(c3noc4cc(F)ccc34)CC1)CCCC2` [risperidone]: the “effect on PPI on its own” value is listed as “no effect on PPI by itself”.

The next test relates to DOI-induced head twitches in mice. The experiment in a line: Observation for head twitches in DOI-treated mice. The test is classed as in vivo. To be noted: mice; 2.5 mg/kg, i.p., 15 min; score 0-6.
Excerpt: as §1
Mice were treated with 2.5 mg/kg DOI i.p. Five min later, mice were treated with AC-90179 s.c. and placed into activity cages. Ten min later, mice were observed using a repeated sampling technique. […] Each dose combination was tested in a separate group of animals (n=8) and the experimenter was blind to drug conditions. Head twitch scores were averaged followed by analysis of variance (ANOVA) and post-hoc Dunnett's t-test comparisons.
The effect of various compounds on head twitch behavior in mice treated with DOI was observed as described in Example 139. Animals received 0.1-30 mg/kg of the compound indicated via subcutaneous injection. MED indicates the minimum effective dose at which a statistically significant reduction in head twitching score (described above) was observed. MED=minimum effective dose in vivo.
For `COc1cc(CC(C)N)c(OC)cc1I` (stereo not drawn) [DOI, reference compound], the “average head twitch score” value is listed as 2.6 (±0.3, S.E.M.).

The test is the same for the next values; noted with them: statistically significant reduction in head twitching score; DOI-treated mice; 0.1-30 mg/kg subcutaneous injection.
Take `COc1ccc(CC(=O)N(Cc2ccc(C)cc2)C2CCN(Cc3ccccc3)CC2)cc1.Cl` [Compound 26HCH17, N-((4-Methylphenyl)methyl)-N-(1-(phenylmethyl)piperidin-4-yl)-4-methoxyphenylacetamide hydrochloride]: the “MED (minimum effective dose in vivo)” value is on record as 30 mg/kg. Still for that read-out and setting: as for `COc1ccc(CC(=O)N(Cc2ccc(C)cc2)C2CCN(CC3CCCCC3)CC2)cc1` [Compound 42ELH45, 2-(4-Methoxyphenyl)-N-(4-methylbenzyl)-N-(1-cyclohexylmethylpiperidin-4-yl)acetamide], the figure is 30 mg/kg; as for `COc1ccc(CC(=O)N(Cc2ccc(C)cc2)C2CCN(C3CCCC3)CC2)cc1` [Compound 42ELH75, 2-(4-Methoxyphenyl)-N-(4-methylbenzyl)-N-(1-cyclopentylpiperidin-4-yl)acetamide], “≦10 mg/kg”. On to `CCN1CCC(N(Cc2ccc(C)cc2)C(=O)Cc2ccc(OC)cc2)CC1` [Compound 42ELH80, 2-(4-Methoxyphenyl)-N-(4-methylbenzyl)-N-(1-ethylpiperidin-4-yl)acetamide], for which the “MED (minimum effective dose in vivo)” value was “≦10 mg/kg”. Still for that read-out and setting: as for `COc1ccc(CC(=O)N(Cc2ccc(Cl)cc2)C2CCN(C(C)C)CC2)cc1` [Compound 42ELH90, 2-(4-Methoxyphenyl)-N-(4-chlorbenzyl)-N-(1-isopropylpiperidin-4-yl)acetamide], the figure is around 10 mg/kg. For the compound `Cc1ccc(CN(C(=O)Cc2ccc(Cl)cc2)C2CCN(C(C)C)CC2)cc1` [Compound 47AKU-7, 2-(4-Chlorophenyl)-N-(4-methylbenzyl)-N-(1-isopropylpiperidin-4-yl)acetamide], the “MED (minimum effective dose in vivo)” value is “≦10 mg/kg”.

For `Cc1ccc(CN(C(=O)Cc2ccc(Cl)cc2)C2CCN(C)CC2)cc1` [Compound 47AKU-8, 2-(4-Chlorophenyl)-N-(4-methylbenzyl)-N-(1-methylpiperidin-4-yl)-acetamide], the “MED (minimum effective dose in vivo)” value was “≦10 mg/kg”. The same measure, in the same setting: under `Cc1ccc(CN(C(=O)Cc2ccc(Cl)cc2)C2CCN(C3CCCC3)CC2)cc1` [Compound 47AKU-11, 2-(4-Chlorophenyl)-N-(4-methylbenzyl)-N-(1-cyclopentylpiperidin-4-yl)-acetamide] stands around 10 mg/kg.

Turning to `CCN1CCC(N(Cc2ccc(C)cc2)C(=O)Cc2ccc(Cl)cc2)CC1` [Compound 47AKU-12, 2-(4-Chlorophenyl)-N-(4-methylbenzyl)-N-(1-ethylpiperidin-4-yl)acetamide], the “MED (minimum effective dose in vivo)” value is on record as “≦10 mg/kg”. `Cc1ccc(CN(C(=O)Cc2ccccc2)C2CCN(C)CC2)cc1` [Compound 47AKU-13, 2-Phenyl-N-(4-methylbenzyl)-N-(1-methylpiperidin-4-yl)-acetamide]: the “MED (minimum effective dose in vivo)” value was “≦10 mg/kg”. As to `Cc1ccc(CN(C(=O)Cc2ccc(F)cc2)C2CCN(C)CC2)cc1` [Compound 47AKU-14, 2-(4-Flourophenyl)-N-(4-methylbenzyl)-N-(1-methylpiperidin-4-yl)-acetamide], the “MED (minimum effective dose in vivo)” value was “≦10 mg/kg”. As to `Cc1ccc(CN(C(=O)Cc2ccc(Cl)cc2)C2CCN(CCO)CC2)cc1` [Compound 47AKU-18, 2-(4-Chlorophenyl)-N-(4-methylbenzyl)-N-(1-(2-hydroxyethyl)-piperidin-4-yl)-acetamide], the “MED (minimum effective dose in vivo)” value was “≧10 mg/kg”. Same read-out and setting: as for `Cc1ccc(CN(C(=O)Cc2ccc(Cl)cc2)C2CCN(C3CCC3)CC2)cc1` [Compound 47AKU-19, 2-(4-Chlorophenyl)-N-(4-methylbenzyl)-N-(1-cyclobutylpiperidin-4-yl)-acetamide], the figure is above 10 mg/kg; as for `COc1ccc(CC(=O)N(Cc2ccc(C)cc2)C2CCN(C3CCC3)CC2)cc1` [Compound 47AKU-20, 2-(4-Methoxyphenyl)-N-(4-methylbenzyl)-N-(1-cyclobutylpiperidin-4-yl)acetamide], “≦10 mg/kg”. Same read-out and setting: as for `COc1ccc(CC(=O)N(Cc2ccc(C)cc2)C2CC3CCC(C2)N3C)cc1` (stereo not drawn) [Compound 47AKU-21, 2-(4-Methoxyphenyl)-N-(4-methylbenzyl)-N-(tropin-4-yl)acetamide], the figure is above 10 mg/kg; as for `Cc1ccc(CN(C(=O)NCc2ccccc2)C2CCN(C)CC2)cc1` [Compound 47AKU-22, N-(4-Methylbenzyl)-N-(1-methylpiperidin-4-yl)-N′-benzyl-carbamide], “≦10 mg/kg”; as for `CN1CCC(N(CCc2ccccc2)C(=O)NCc2ccccc2)CC1` [Compound 47AKU-25, N-Phenethyl-N-(1-methylpiperidin-4-yl)-N′-benzyl-carbamide], above 10 mg/kg. Regarding `COc1ccc(CNC(=O)N(Cc2ccc(C)cc2)C2CCN(C)CC2)cc1` [Compound 47AKU-44, N-(4-Methylbenzyl)-N-(1-methylpiperidin-4-yl)-′N′-(4-methoxybenzyl)-carbamide], the “MED (minimum effective dose in vivo)” value is on record as “≦10 mg/kg”. As to `COc1ccc(CC(=O)N(Cc2ccc(C)cc2)C2CCN(C(C)(C)C)CC2)cc1` [Compound 47AKU-49, 2-(4-Methoxyphenyl)-N-(4-methylbenzyl)-N-(1-t-butylpiperidin-4-yl)-acetamide], the “MED (minimum effective dose in vivo)” value is “≦10 mg/kg”. As to `CN1CCC(N(Cc2ccc(F)cc2)C(=O)Cc2ccc(F)cc2)CC1` [Compound 50ELH6, 2-(4-Fluorophenyl)-N-(4-fluorobenzyl)-N-(1-methylpiperidin-4-yl)acetamide], the “MED (minimum effective dose in vivo)” value was “≦10 mg/kg”. In the case of `COc1ccc(CC(=O)N(CCCc2ccccc2)C2CCN(C)CC2)cc1` [Compound 50ELH65, 2-(4-Methoxyphenyl)-N-(3-phenyl-1-propyl)-N-(1-methylpiperidin-4-yl)acetamide], the “MED (minimum effective dose in vivo)” value is listed as “≦10 mg/kg”. Take `COc1ccc(CC(=O)N(CCc2ccc(C)cc2)C2CCN(C)CC2)cc1` [Compound 50ELH68]: the “MED (minimum effective dose in vivo)” value is on record as “≦10 mg/kg”. Still for that read-out and setting: as for `COc1ccc(CC(=O)N(CCc2ccc(F)cc2)C2CCN(C)CC2)cc1` [Compound 50ELH93A, 2-(4-Methoxyphenyl)-N-(2-4-(fluorophenyl)ethyl)-N-(1-methylpiperidin-4-yl)acetamide], the entry is “≦10 mg/kg”. As to `CCOc1ccc(CC(=O)N(Cc2ccc(C)cc2)C2CCN(C)CC2)cc1` [Compound 58AKU-4, 2-(4-Ethoxyphenyl)-N-(4-methylbenzyl)-N-(1-methylpiperidin-4-yl)acetamide], the “MED (minimum effective dose in vivo)” value is “≦10 mg/kg”.

On to `CCCCOc1ccc(CC(=O)N(Cc2ccc(C)cc2)C2CCN(C)CC2)cc1` [Compound 58AKU-5, 2-(4-Butoxyphenyl)-N-(4-methylbenzyl)-N-(1-methylpiperidin-4-yl)acetamide], for which the “MED (minimum effective dose in vivo)” value is reported as “≦1 mg/kg”. Take `Cc1ccc(CN(C(=O)Cc2ccc(OC(C)C)cc2)C2CCN(C)CC2)cc1` [Compound 58AKU-6, 2-(4-i-Propoxyphenyl)-N-(4-methylbenzyl)-N-(1-methylpiperidin-4-yl)acetamide]: the “MED (minimum effective dose in vivo)” value was “≦10 mg/kg”. `CCOc1ccc(CC(=O)N(CCc2ccc(F)cc2)C2CCN(C)CC2)cc1` [Compound 63ELH20, 2-(4-ethoxyphenyl)-N-[2-(4-fluorophenyl)ethyl]-N-(1-methylpiperidin-4-yl)acetamide]: the “MED (minimum effective dose in vivo)” value is recorded as “≦10 mg/kg”.

As for `CCOc1ccc(CC(=O)N(Cc2ccc(F)cc2)C2CCN(C)CC2)cc1` [Compound 63ELH21, 2-(4-Ethoxyphenyl)-N-(4-fluorobenzyl)-N-(1-methylpiperidin-4-yl)acetamide], the “MED (minimum effective dose in vivo)” value is “≦10 mg/kg”.
